Test results published in PubChem BioAssay AID1963972 (Molecular Pharmacology Branch, DTP, NCI, 2024).

System: 945468-187-T-J2-PDC spheroids viability
Assay: Anticancer human tumor 945468-187-T-J2-PDC patient-derived rectal carcinoma cell line growth inhibition [PI3K]
Conditions: spheroids with HUVEC and MSC; for IC50: curve of first compound; for viability, T/C: stronger effect = lower value
From the text: Combinatorial screen of targeted agents with the PI3K inhibitors inavolisib, alpelisib, duvelisib, and copanlisib in multi-cell type tumor spheroids
A high-throughput screen of multi-cell type tumor spheroids was designed to identify active combinations of targeted small molecules and PI3K pathway inhibitors. Complex spheroids include a stromal component modeled by human endothelial cells (HUVEC) and fibroblasts modeled by human mesenchymal stem cells (MSCs). The concentration ranges selected for each drug and investigational agent were based upon clinically achievable concentrations if the clinical Cmax of the agent was known.
Compounds. The drugs and investigational agents: inavolisib (NSC800729), alpelisib (NSC765974), duvelisib (NSC772469), copanlisib (NSC816437), ipatasertib (NSC767898), afuresertib (NSC778305), talazoparib (NSC767125), sapanisertib (NSC764658), selumetinib (NSC741078), tovorafenib (DAY101, NSC766906), vemurafenib (NSC761431), ravoxertinib (NSC781343), sotorasib (NSC818433), MRTX1133 (NSC 836407), abemaciclib (NSC 768073), palbociclib (NSC758247), venetoclax (NSC 766270), SY5609 (NSC837396), enzalutamide (NSC755605), and darolutamide (NSC825331), were obtained from the National Cancer Institute (NCI) Developmental Therapeutics Program Chemical Repository. The FDA-approved anticancer drug set is available from the NCI Developmental Therapeutics Program. […] The stock solutions were prepared in dimethyl sulfoxide (DMSO, Sigma-Aldrich, St. Louis, MO, cat. D2650) at 800-fold the tested concentration and stored at -70 degrees C prior to their use. All drugs and investigational agents were tested over a range starting from a high concentration at or near the clinical Cmax and decreasing in half-log increments. If the clinical Cmax for an agent had not been determined, the highest concentration tested was 10 microM.
Cell Culture. All cells were maintained in an incubator at 37 degrees C and 5% CO2 with 95% humidity. The PDC lines were cultured according to standard operating procedures established by the NCI PDMR (https://pdmr.cancer.gov/sops/default.htm). All PDCs were thawed and cultured in Matrigel-coated flasks prepared with a working solution of 1X Ham's F-12 nutrient mix, without supplementation (Invitrogen, Waltham, MA, cat. 11765054), 100 U/mL penicillin-streptomycin (Invitrogen, cat. 15140122), and 2.5% Matrigel (Corning Inc., Corning, NY, cat. 354248) for the first three passages. The 354836-022-R-J1-PDC, 475296-252-R-J1-PDC, and 997726-040-R-J2-PDC lines were cultured in 6A media, which includes advanced DMEM/F-12 (Thermo Fisher Scientific, cat. 12634028), 10 mM HEPES (Thermo Fisher Scientific, cat. 15630080), 1X GlutaMAX supplement (Thermo Fisher Scientific, cat. 35050061), 0.1 mg/mL primocin (InvivoGen, San Diego, CA, cat. ant-pm-2), 10% defined fetal bovine serum, heat inactivated (HyClone Laboratories Inc., Logan, UT, cat. SH30070.03HI), 50% L-WRN conditioned media (ATCC, cat. CRL-3276), 1.25 mM N-Acetyl-L-cysteine (Sigma-Aldrich, cat. A9165), 10 mM nicotinamide (Sigma-Aldrich, cat. N0636), 1X B-27 supplement (Thermo Fisher Scientific, cat. 17504044), 1X N-2 supplement (Thermo Fisher Scientific, cat. 17502048), and 10 microM Y-27632 dihydrochloride (Tocris Bioscience, Bristol, United Kingdom, cat. 1254). The 624824-186-R-J2-PDC line was cultured in 6C/Colon 1B media, which includes all 6A media components plus 50 ng/mL human EGF recombinant protein (Thermo Fisher Scientific, cat. PHG0311). […]
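Further: spheroids exposed to compounds for seven days before reading.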

`CC(=O)c1c(C)c2cnc(Nc3ccc(N4CCNCC4)cn3)nc2n(C2CCCC2)c1=O` + CC(Nc1ccc2c(c1)OCCn1cc(N3C(=O)OCC3C(F)F)nc1-2)C(N)=O gave an IC50 (second compound 0.00316 µM) of over 100 nM, an IC50 (second compound 0.01 µM) of over 100 nM and an IC50 (second compound 0.0316 µM) of over 100 nM. For the same molecule, the IC50 (second compound 0.1 µM) was over 100 nM, the IC50 (second compound 0.316 µM) was over 100 nM and the IC50 (second compound 1 µM) was over 100 nM. For the same molecule, the viability, T/C (second compound 0.00316 µM, first compound 0.000316 µM) was 91.5%, the viability, T/C (second compound 0.00316 µM, first compound 0.001 µM) was 98.4% and the viability, T/C (second compound 0.00316 µM, first compound 0.00316 µM) was 73.9%. For the same molecule, the viability, T/C (second compound 0.00316 µM, first compound 0.01 µM) was 114%, the viability, T/C (second compound 0.00316 µM, first compound 0.0316 µM) was 129% and the viability, T/C (second compound 0.00316 µM, first compound 0.1 µM) was 128%. The viability, T/C (second compound 0.01 µM, first compound 0.000316 µM) was 73.9%, the viability, T/C (second compound 0.01 µM, first compound 0.001 µM) was 109% and the viability, T/C (second compound 0.01 µM, first compound 0.00316 µM) was 127%. For the same molecule, the viability, T/C (second compound 0.01 µM, first compound 0.01 µM) was 83.5%, the viability, T/C (second compound 0.01 µM, first compound 0.0316 µM) was 92.8% and the viability, T/C (second compound 0.01 µM, first compound 0.1 µM) was 114%. For the same molecule, the viability, T/C (second compound 0.0316 µM, first compound 0.000316 µM) was 91%, the viability, T/C (second compound 0.0316 µM, first compound 0.001 µM) was 101% and the viability, T/C (second compound 0.0316 µM, first compound 0.00316 µM) was 101%. The viability, T/C (second compound 0.0316 µM, first compound 0.01 µM) was 87.3%, the viability, T/C (second compound 0.0316 µM, first compound 0.0316 µM) was 86.2% and the viability, T/C (second compound 0.0316 µM, first compound 0.1 µM) was 105%. It also gave a viability, T/C (second compound 0.1 µM, first compound 0.000316 µM) of 92.5%, a viability, T/C (second compound 0.1 µM, first compound 0.001 µM) of 144% and a viability, T/C (second compound 0.1 µM, first compound 0.00316 µM) of 84.2%. For the same molecule, the viability, T/C (second compound 0.1 µM, first compound 0.01 µM) was 101%, the viability, T/C (second compound 0.1 µM, first compound 0.0316 µM) was 107% and the viability, T/C (second compound 0.1 µM, first compound 0.1 µM) was 100%. The viability, T/C (second compound 0.316 µM, first compound 0.000316 µM) was 81.3%, the viability, T/C (second compound 0.316 µM, first compound 0.001 µM) was 87% and the viability, T/C (second compound 0.316 µM, first compound 0.00316 µM) was 79%. It also gave a viability, T/C (second compound 0.316 µM, first compound 0.01 µM) of 78.1%, a viability, T/C (second compound 0.316 µM, first compound 0.0316 µM) of 85.3% and a viability, T/C (second compound 0.316 µM, first compound 0.1 µM) of 73.1%. The viability, T/C (second compound 1 µM, first compound 0.000316 µM) was 90.3%, the viability, T/C (second compound 1 µM, first compound 0.001 µM) was 74.5% and the viability, T/C (second compound 1 µM, first compound 0.00316 µM) was 70.8%. For the same molecule, the viability, T/C (second compound 1 µM, first compound 0.01 µM) was 72%, the viability, T/C (second compound 1 µM, first compound 0.0316 µM) was 71.2% and the viability, T/C (second compound 1 µM, first compound 0.1 µM) was 81.4%.
